Structures are written as SMILES. Several values for one entry are separate records, joined by “and”; a condition that tells them apart may be missing. Equal values may be shown once.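 Values below derive from 48-hour exposures of cells grown in 96-well plates, with endpoints linearly interpolated between the two concentrations bracketing the appropriate inhibition level. GI50 is the concentration that inhibits growth by half. At the TGI there is no net growth.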

In one assay the test system is MCF7 breast. The assay is described as follows: DTP human tumour cell line panel, 48 h.
In general, GI50 refers to the concentration at which growth is held to half of that of the control. Consider `NC(N)=NS(=O)(=O)c1ccc(Nc2c3ccccc3nc3c(C(=O)NCCO)cccc23)cc1`, for which the GI50 was 13.5 µM.

The term TGI denotes the concentration giving total growth inhibition. High values mean less potent growth arrest, low ones more potent growth arrest. Consider `C=CCO[C@H]1CO[C@H]2[C@@H]1OC[C@@H]2Oc1ccc(Nc2ccnc(Nc3ccc(O[C@H]4CO[C@H]5[C@@H]4OC[C@@H]5OCC=C)c(Cl)c3)n2)cc1Cl`, for which the GI50 is 1.56 µM and the TGI stood at 3.38 µM.

For `COc1ccc2c(c1)sc1nc(-c3ccccc3)c(-c3cccc4ccccc34)n12`, the GI50 is 0.835 µM and the TGI was more than 33.4 µM.

In turn, `C[N+](C)(C)CC(=O)N/N=C(/CC(=O)CC(C1=C(O)c2ccccc2OC1)c1ccccc1)C(=O)Nc1cccc(Cl)c1` (stereo not drawn) showed a TGI of more than 100 µM.

Turning to `CCN(CC)N=Nc1c(C(N)=O)n[nH]c1C`, the TGI is more than 100 µM.

Consider `OCCN(CCO)c1ncnc2c1ncn2Cc1ccc(CCl)cc1`, for which the GI50 is 6.3 µM and the TGI turned out to be 32.5 µM.

Take `O=C(Nc1ccccc1)c1c(O)[nH]c(=S)[nH]c1=O`: the TGI was found to be 92.8 µM.

For `Cc1cc(-c2nc(C(=O)Nc3cc4oc(N5CCOCC5)nc4nc3N3CC[C@@H](O)C3)co2)ccn1`, the GI50 was 84.1 µM and the TGI is more than 100 µM.

`COc1ccc(CC2c3cc4c(cc3CCN2C)OCO4)c(C=O)c1OC` (stereo not drawn) returned a TGI of more than 100 µM.

Regarding `COc1cc(/C=N\NC(=O)CN2CCN(c3cc4c(cc3F)c(=O)c(C(=O)N/N=C/c3cc(OC)c(OC)c(OC)c3)cn4C3CC3)CC2)cc(OC)c1OC`, the GI50 is 0.362 µM and the TGI was more than 100 µM.

For the molecule `C=CC(=O)Nc1cc(Nc2ncc(C(=O)OC(C)C)c(-c3cn(C)c4ccccc34)n2)c(OC)cc1N(C)CCN(C)C`, the GI50 is 2.12 µM and the TGI was determined as 7.62 µM.

As for `Cc1nc2sccn2c1-c1csc(Nc2ccccc2Cl)n1`, the GI50 was 2.81 µM and the total growth inhibition concentration (TGI) was found to be 23 µM.

Take `CN(C)c1ccc(/C=C\C2=[N+](C)c3ccccc3C2(C)C)cc1`: the GI50 is 0.455 µM and the TGI was 30.7 µM.

Consider `Nc1nc(-n2c(-c3ccccc3)nc3c(Br)cc(Br)cc3c2=O)nnc1-c1cccc(Cl)c1Cl`, for which the GI50 is 4.9 µM and the TGI is more than 100 µM.

In the case of `Cn1cc(C2=C(c3c4n(c5ccccc35)CCCCC4)C(=O)NC2=O)c2ccccc21`, the GI50 was 1.36 µM and the TGI is more than 25 µM.

Turning to `Cc1ccnc2c1ccc1c(C)ccnc12`, the GI50 was 0.343 µM and the TGI was 12.4 µM.

For another assay, the system named is SK-MEL-5 melanoma. As to the kind of experiment: DTP human tumour cell line panel, 48 h.
Consider `NC(N)=NS(=O)(=O)c1ccc(Nc2c3ccccc3nc3c(C(=O)NCCO)cccc23)cc1`, for which the GI50 is 15.6 µM.

For the molecule `C=CCO[C@H]1CO[C@H]2[C@@H]1OC[C@@H]2Oc1ccc(Nc2ccnc(Nc3ccc(O[C@H]4CO[C@H]5[C@@H]4OC[C@@H]5OCC=C)c(Cl)c3)n2)cc1Cl`, the GI50 is 1.46 µM and the TGI is 2.8 µM.

Take `COc1ccc2c(c1)sc1nc(-c3ccccc3)c(-c3cccc4ccccc34)n12`: the GI50 is 0.233 µM and the TGI was 0.856 µM.

For `C[N+](C)(C)CC(=O)N/N=C(/CC(=O)CC(C1=C(O)c2ccccc2OC1)c1ccccc1)C(=O)Nc1cccc(Cl)c1` (stereo not drawn), the TGI is more than 100 µM.

Take `CCN(CC)N=Nc1c(C(N)=O)n[nH]c1C`: the TGI was more than 100 µM.

Turning to `OCCN(CCO)c1ncnc2c1ncn2Cc1ccc(CCl)cc1`, the GI50 is 10.9 µM and the TGI amounted to 23.3 µM.

Consider `O=C(Nc1ccccc1)c1c(O)[nH]c(=S)[nH]c1=O`, for which the GI50 is 40.5 µM; the TGI was 46 µM and 85.2 µM.

In the case of `Cc1cc(-c2nc(C(=O)Nc3cc4oc(N5CCOCC5)nc4nc3N3CC[C@@H](O)C3)co2)ccn1`, the GI50 is 45.7 µM and the TGI is more than 100 µM.

`COc1ccc(CC2c3cc4c(cc3CCN2C)OCO4)c(C=O)c1OC` (stereo not drawn) registered a TGI of more than 100 µM.

Take `COc1cc(/C=N\NC(=O)CN2CCN(c3cc4c(cc3F)c(=O)c(C(=O)N/N=C/c3cc(OC)c(OC)c(OC)c3)cn4C3CC3)CC2)cc(OC)c1OC`: the GI50 is 0.417 µM and the TGI was 5.1 µM.

Consider `C=CC(=O)Nc1cc(Nc2ncc(C(=O)OC(C)C)c(-c3cn(C)c4ccccc34)n2)c(OC)cc1N(C)CCN(C)C`, for which the GI50 is 1.78 µM and the TGI stood at 3.21 µM.

Consider `Cc1nc2sccn2c1-c1csc(Nc2ccccc2Cl)n1`, for which the GI50 is 2.15 µM and the TGI stood at 10.3 µM.

On to `CN(C)c1ccc(/C=C\C2=[N+](C)c3ccccc3C2(C)C)cc1`, for which the GI50 was 0.715 µM and the TGI amounted to 3 µM.

As to `Nc1nc(-n2c(-c3ccccc3)nc3c(Br)cc(Br)cc3c2=O)nnc1-c1cccc(Cl)c1Cl`, the GI50 was 4.65 µM and the TGI came out at 28.3 µM.

Turning to `Cn1cc(C2=C(c3c4n(c5ccccc35)CCCCC4)C(=O)NC2=O)c2ccccc21`, the GI50 was 2.66 µM and the TGI came to 13.1 µM.

In the case of `Cc1ccnc2c1ccc1c(C)ccnc12`, the GI50 was 0.303 µM and the TGI turned out to be 11.8 µM.

For another assay, the system named is UACC-257 melanoma. As to the kind of experiment: DTP human tumour cell line panel, 48 h.
As to `NC(N)=NS(=O)(=O)c1ccc(Nc2c3ccccc3nc3c(C(=O)NCCO)cccc23)cc1`, the GI50 is 39.4 µM.

With `C=CCO[C@H]1CO[C@H]2[C@@H]1OC[C@@H]2Oc1ccc(Nc2ccnc(Nc3ccc(O[C@H]4CO[C@H]5[C@@H]4OC[C@@H]5OCC=C)c(Cl)c3)n2)cc1Cl`, the GI50 is 1.83 µM and the TGI stood at 3.69 µM.

Take `COc1ccc2c(c1)sc1nc(-c3ccccc3)c(-c3cccc4ccccc34)n12`: the GI50 was 0.532 µM and the TGI is more than 100 µM.

`C[N+](C)(C)CC(=O)N/N=C(/CC(=O)CC(C1=C(O)c2ccccc2OC1)c1ccccc1)C(=O)Nc1cccc(Cl)c1` (stereo not drawn) yielded a TGI of more than 100 µM.

`CCN(CC)N=Nc1c(C(N)=O)n[nH]c1C` returned a TGI of more than 100 µM.

Turning to `OCCN(CCO)c1ncnc2c1ncn2Cc1ccc(CCl)cc1`, the GI50 is 13.8 µM and the TGI was 28.9 µM.

`O=C(Nc1ccccc1)c1c(O)[nH]c(=S)[nH]c1=O`: the GI50 was 83.1 µM; the TGI is 112 µM and > 250 µM.

Take `Cc1cc(-c2nc(C(=O)Nc3cc4oc(N5CCOCC5)nc4nc3N3CC[C@@H](O)C3)co2)ccn1`: the GI50 was 88.8 µM and the TGI was more than 100 µM.

Values taken from PubChem BioAssay (NCI).
